In patent publication US20240140952A1, “INHIBITORS AND DEGRADERS OF JANUS KINASE 2” (H. LEE MOFFITT CANCER CENTER AND RESEARCH INSTITUTE, INC., priority 2021, published 2024):
Like-named read-outs stand apart in the source and are kept apart here.

Columns and labels:
JAK2 = JAK2 (Homo sapiens (Human), UniProt O60674); assay: Radiometric assay of enzymatic JAK2 activity by Reaction Biology Corp.; assay type: biochemical
UKE-1 cells = assay: UKE-1 cell viability assay (CellTiter Blue); conditions: UKE1, 72 h, read-out: UKE-1 cell growth inhibition IC50
Description: Suspension cells were seeded at 20,000 cells per well. […] Cell viability data were analyzed using GraphPad Prism6.

JAK2 KD [1] = biological target: T1, JAK2 KD (Homo sapiens (Human), UniProt O60674); assay: Differential scanning fluorimetry (DSF) binding studies with purified JAK2 KD
T1 sequence (O60674 840-1132): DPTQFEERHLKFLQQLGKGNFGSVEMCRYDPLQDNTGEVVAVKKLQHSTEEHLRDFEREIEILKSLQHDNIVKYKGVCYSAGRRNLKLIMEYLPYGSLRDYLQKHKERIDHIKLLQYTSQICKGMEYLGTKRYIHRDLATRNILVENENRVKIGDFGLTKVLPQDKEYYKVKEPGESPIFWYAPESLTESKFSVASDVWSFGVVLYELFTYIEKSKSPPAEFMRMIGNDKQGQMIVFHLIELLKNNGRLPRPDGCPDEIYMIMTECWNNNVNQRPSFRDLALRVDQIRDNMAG
Description: To assess the suitability of purified JAK2 KD for SAR studies for drug development campaigns, three series of JAK2 inhibitors (FIG. 2A-C) were subjected to binding studies by differential scanning fluorimetry (DSF).

JAK2 KD [2] = biological target: T1, JAK2 KD; assay: Transient expression of JAK2 KD in Expi293F cells, immunoblot densitometry; assay type: cell-based
Description: The construct was expressed using a CMV promoter and contained a Hiss N-terminal affinity tag followed by a TEV cleavage site. Expi293F cells (Invitrogen) were grown, maintained, and treated in shaking culture at 37° C. with 8% CO2 in Expi293 medium (Invitrogen). Recombinant JAK2 was expressed in Expi293F cells using Transporter 5 transfection reagent as described by the manufacturer (PolySciences). One hour after adding the plasmid:transfection complex, varying concentrations of JAK2 inhibitor or transcription enhancer were added. The transfection proceeded for 24 hours before harvest.
Previously, JAK2 KD has been predominantly purified from insect cells; but this process takes several weeks to generate and amplify the baculovirus to produce large enough quantities of purified protein.

SRC = SRC (Homo sapiens (Human), UniProt P12931); conditions: selectivity; cited from earlier work
Chain of SRC (P12931 whole entry, species assumed): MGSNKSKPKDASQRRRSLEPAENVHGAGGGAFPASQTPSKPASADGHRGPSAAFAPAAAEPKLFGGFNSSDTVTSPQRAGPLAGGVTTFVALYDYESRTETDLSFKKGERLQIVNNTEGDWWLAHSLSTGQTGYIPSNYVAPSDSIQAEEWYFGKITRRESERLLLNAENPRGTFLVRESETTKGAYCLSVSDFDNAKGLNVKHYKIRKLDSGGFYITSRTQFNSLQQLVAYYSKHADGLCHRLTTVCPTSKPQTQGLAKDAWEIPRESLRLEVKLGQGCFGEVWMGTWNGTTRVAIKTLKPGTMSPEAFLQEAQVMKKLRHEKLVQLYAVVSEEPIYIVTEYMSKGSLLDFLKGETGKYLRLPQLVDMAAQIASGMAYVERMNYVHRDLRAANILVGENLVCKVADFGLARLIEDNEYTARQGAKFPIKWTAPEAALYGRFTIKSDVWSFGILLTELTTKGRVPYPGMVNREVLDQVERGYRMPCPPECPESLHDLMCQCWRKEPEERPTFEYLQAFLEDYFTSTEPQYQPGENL

[3] = read-out: Biochemical inhibition IC50
[4] = radiometric assay, ± SD from two data sets, read-out: Biochemical inhibition IC50

Chain of JAK2 (O60674 whole entry): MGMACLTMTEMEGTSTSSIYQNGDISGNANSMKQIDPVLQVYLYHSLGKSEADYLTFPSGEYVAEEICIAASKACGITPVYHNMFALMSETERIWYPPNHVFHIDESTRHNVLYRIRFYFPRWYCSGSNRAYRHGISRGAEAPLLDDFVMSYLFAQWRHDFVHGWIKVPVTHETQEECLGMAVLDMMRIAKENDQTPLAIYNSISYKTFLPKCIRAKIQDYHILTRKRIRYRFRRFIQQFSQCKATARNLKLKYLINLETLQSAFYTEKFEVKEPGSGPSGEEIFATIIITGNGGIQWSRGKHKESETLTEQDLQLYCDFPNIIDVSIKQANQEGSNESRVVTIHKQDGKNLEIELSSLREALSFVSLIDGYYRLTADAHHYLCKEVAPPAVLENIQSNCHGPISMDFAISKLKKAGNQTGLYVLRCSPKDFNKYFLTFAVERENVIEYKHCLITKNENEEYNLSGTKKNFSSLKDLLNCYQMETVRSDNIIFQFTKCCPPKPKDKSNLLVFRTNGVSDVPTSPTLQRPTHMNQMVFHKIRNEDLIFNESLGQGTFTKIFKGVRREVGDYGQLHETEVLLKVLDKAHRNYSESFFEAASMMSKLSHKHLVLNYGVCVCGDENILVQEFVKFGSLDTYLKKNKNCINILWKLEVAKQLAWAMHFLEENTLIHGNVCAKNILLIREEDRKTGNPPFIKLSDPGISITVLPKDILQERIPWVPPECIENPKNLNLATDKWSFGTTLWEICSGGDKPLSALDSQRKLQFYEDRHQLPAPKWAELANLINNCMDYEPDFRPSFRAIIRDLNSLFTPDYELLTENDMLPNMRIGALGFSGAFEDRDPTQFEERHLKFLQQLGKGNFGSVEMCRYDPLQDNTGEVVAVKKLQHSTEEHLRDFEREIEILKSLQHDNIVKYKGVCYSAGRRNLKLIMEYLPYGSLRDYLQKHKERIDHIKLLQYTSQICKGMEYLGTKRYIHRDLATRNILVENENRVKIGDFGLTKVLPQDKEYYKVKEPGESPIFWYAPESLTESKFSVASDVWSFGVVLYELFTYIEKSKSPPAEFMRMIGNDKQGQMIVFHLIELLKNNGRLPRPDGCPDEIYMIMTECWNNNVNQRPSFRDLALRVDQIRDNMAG

Structure (SMILES) | IC50 (JAK2; [3]) | IC50 (UKE-1 cells) | other results
N#CC[C@H](C1CCCC1)n1cc(-c2nc(Nc3ccc(C4CCNCC4)cc3)nc3[nH]ccc23)cn1 [(R)-1, (R)-3-Cyclopentyl-3-(4-(2-((4-(piperidin-4-yl)phenyl)amino)-7H-pyrrolo[2,3-d]pyrimidin-4-yl)-1H-pyrazol-1-yl)propanenitrile] | 0.15 ± 0.03 nM | – | IC50 (JAK2): < 0.15 nM
Cc1cnc(Nc2ccc(OCCN3CCCC3)cc2)nc1Nc1cccc(S(=O)(=O)NC(C)(C)C)c1 [Fedratinib, reference compound] | – | 660 ± 60 nM | –
N#CCC(C1CCCC1)n1cc(-c2nc(Nc3ccc(C4CCNCC4)cc3)nc3[nH]ccc23)cn1 (racemic) [(rac)-1] | – | – | Binding potential ΔTm (JAK2 KD [1]): 11.8 ± 0.05 °C
C=CCCn1cc(-c2nc(Nc3ccc(C4CCNCC4)cc3)nc3[nH]ccc23)cn1 [Compound 3, 4-(1-(But-3-en-1-yl)-1H-pyrazol-4-yl)-N-(4-(piperidin-4-yl)phenyl)-7H-pyrrolo[2,3-d]pyrimidin-2-amine] | – | 620 ± 40 nM | IC50 (JAK2; [4]): 0.26 ± 0.04 nM
CCCC(=O)O [butyric acid] | – | – | JAK2 KD expression increase over ruxolitinib alone (JAK2 KD [2]): four-fold
N#CCCn1cc(-c2nc(Nc3ccc(C4CCNCC4)cc3)nc3[nH]ccc23)cn1 [Compound 2, 3-(4-(2-((4-(Piperidin-4-yl)phenyl)amino)-7H-pyrrolo[2,3-d]pyrimidin-4-yl)-1H-pyrazol-1-yl)propanenitrile] | 0.13 ± 0.048 nM | 4500 ± 5900 nM | –
N#CC[C@H](C1CCCC1)n1cc(-c2ncnc3[nH]ccc23)cn1 [Ruxolitinib, reference compound] | – | – | Inhibitory activity for JAK2 over SRC (SRC): three orders of magnitudes higher
CCCC(CCC)C(=O)O [valproic acid] | – | – | JAK2 KD expression increase over ruxolitinib alone (JAK2 KD [2]; HDAC inhibitor during expression alongside ruxolitinib): four-fold
Cc1cnc(Nc2ccc(C3CCN(C)CC3)c(F)c2)nc1Nc1ccc2c(c1)N(S(=O)(=O)C(C)(C)C)CC2 [Compound 7, N^4-(1-(tert-Butylsulfonyl)indolin-6-yl)-N^2-(3-fluoro-4-(1-methylpiperidin-4-yl)phenyl)-5-methylpyrimidine-2,4-diamine] | 3.6 ± 1.1 nM | 210 ± 20 nM | –
Cc1cnc(Nc2ccc(C3CCN(C)CC3)c(F)c2)nc1Nc1ccc(F)c(NS(=O)(=O)C(C)(C)C)c1 [Compound 4, N-(2-Fluoro-5-((2-((3-fluoro-4-(1-methylpiperidin-4-yl)phenyl)amino)-5-methylpyrimidin-4-yl)amino)phenyl)-2-methylpropane-2-sulfonamide] | – | – | IC50 (JAK2; [4]): 6.5 ± 3.5 nM
Cc1cnc(Nc2cc(F)c(C3CCN(C)CC3)c(F)c2)nc1Nc1ccc(F)c(NS(=O)(=O)C(C)(C)C)c1 [Compound 5, N-(5-((2-((3,5-Difluoro-4-(1-methylpiperidin-4-yl)phenyl)amino)-5-methylpyrimidin-4-yl)amino)-2-fluorophenyl)-2-methylpropane-2-sulfonamide] | – | 150 ± 10 nM | IC50 (JAK2; [4]): 8.2 ± 5.7 nM
N#CC[C@@H](C1CCCC1)n1cc(-c2nc(Nc3ccc(C4CCNCC4)cc3)nc3[nH]ccc23)cn1 [(S)-1, (S)-3-Cyclopentyl-3-(4-(2-((4-(piperidin-4-yl)phenyl)amino)-7H-pyrrolo[2,3-d]pyrimidin-4-yl)-1H-pyrazol-1-yl)propanenitrile] | 0.099 ± 0.02 nM | – | –
